# Starred links: 1 amine or outer side, 2 acyl side, 3 side chain; linkers in the order of their positions; H or OH if unused. Positions of bridges follow the written chain, without caps; N, C: chain ends. Non-standard residues stand in square brackets, D forms with d. Residues, ends and D or L forms follow the SMILES beside them. *: point of attachment. X1 = CC[C@H](C)[C@@H](N[*:1])[C@@H](O)CC(=O)O[C@H](C(=O)[C@H](C)C(=O)[*:2])C(C)C; NMeY = CN[C@@H](Cc1ccc(O)cc1)C(=O)O; dNMeL = CN[C@H](CC(C)C)C(=O)O; Pyruvoyl = CC(=O)C(=O)*
# Key:
# MIA PaCa-2 cell line = assay: In vitro cytotoxicity, MTS/PMS assay, single agents; type: cell-based; conditions: Homo sapiens; MIA PaCa-2, 96 hours exposure, MTS/PMS viability
# Protocol: (§1) PANC-1 (ATCC CRL-1469) and MIA PaCa-2 (ATCC CRL-1420) cell lines obtained from ATCC (Rockville, Md.) were used to check the cytotoxicity of Aplidine and Gemcitabine hydrochloride salt in human pancreas carcinoma cell lines. These cell lines were maintained in Dulbecco's modified Eagle medium with 4 mmol/L glutamine containing 10% Fetal Bovine Serum (FBS), and 1% Penicillin/Streptomycin solution, at 37° C. in humidified atmosphere of 5% CO2.
# (§2) Four thousand cells/well were plated in a 96/wells tissue culture plate and exposed to different concentrations of Aplidine or Gemcitabine for 96 hours at 37° C. and 5% CO2. At the end of the incubation the viability of the cells was tested with the MTS/PMS assay (Riss T L and Moravec R A, Mol. Biol. Cell, 1992, 3, 184a). Cell viability was correlated to the amount of formazan quantified spectrophotometrically at 450 nm (reference wavelength 670 nm) using a microplate reader (SpectraMax® Plus^384, Molecular Devices, Sunnyvale, Calif.).
# PANC-1 cell line = assay: as above; type: cell-based; conditions: Homo sapiens; PANC-1, 96 hours exposure, MTS/PMS viability
# Protocol: as §1, §2
# PANC-1 cells = assay: Pancreatic cancer xenograft model, tumor volume; type: in vivo, NCR Nu/Nu mice; conditions: median tumor volume
# Description: Pathogen-free NCR Nu/Nu mice, of 5 to 6 weeks old and purchased from Taconic Farms (Germantown, N.Y.), were housed in microisolator cages under specific pathogen-free conditions. The animals were provided autoclaved food and water ad libitum.
# Mice were inoculated subcutaneously in the right flank with 0.5×10^7 PANC-1 cells containing 10% matrigel.
# As mentioned before, the vehicle used for the administration of Aplidine contained 15% Cremophor EL/15% Ethanol/70% WFI diluted in saline, whereas Gemcitabine was prepared in saline in order to be administered.
# Both drugs were administered intra-peritoneally. […] Tumor size and weight of the animals were recorded every other day, starting from the first day of treatment. Tumor volume was calculated according to the formula:
# tumor volume (mm^3)=(longer diameter)×[(shorter diameter)^2]/2.
# Comparison of the median tumor volume in the treatment groups (T) to the median tumor volume in the control group (C) [T/C] on day 20 was used for evaluation of tumor efficacy. % T/C [T/C×100%] for each treatment is reported in Table 3.
# [1] = tested on: AML and ALL samples from pediatric patients; conditions: 5 nM; de novo or relapsed ALL and AML; cited from earlier work
SMILES,IC50 (MIA PaCa-2 cell line),IC50 (PANC-1 cell line),"% T/C on day 20 (PANC-1 cells; Aplidine 0.6 mg/kg on day 1 and 8, intra-peritoneally)",In vitro cytotoxic activity [1],"% T/C on day 20 (PANC-1 cells; Gemcitabine 250 mg/kg on day 1, 4, 8 & 12, intra-peritoneally)"
CC[C@H](C)[C@H]1NC(=O)[C@@H](NC(=O)[C@@H](CC(C)C)N(C)C(=O)[C@@H]2CCCN2C(=O)C(C)=O)[C@@H](C)OC(=O)[C@H](Cc2ccc(OC)cc2)N(C)C(=O)[C@@H]2CCCN2C(=O)[C@H](CC(C)C)NC(=O)[C@@H](C)C(=O)[C@H](C(C)C)OC(=O)C[C@@H]1O [Aplidine] (Pyruvoyl-P[dNMeL]T[X1]LP[NMeY](Me); ester 3-C),1 nM,1 nM,23%,cytotoxic activity,
"Nc1ccn([C@@H]2O[C@H](CO)[C@@H](O)C2(F)F)c(=O)n1 [Gemcitabine, reference compound]",150 nM,1000 nM,,,45%
